Organism: Rattus norvegicus
Test: Open TG-GATES - Regimen: Daily Repeat
Assay type: toxicity, organism-based, Sprague-Dawley
Design: regimen Daily Repeat, gender Male, age 6 weeks
Conditions: in vivo, po, 150 mg/kg, route gavage, dose level High; for APTT / Bas / Eos / Fbg / Hb / Ht / Lym / MCHC / MCV / Mono / Neu / PT / Plat / RBC / Ret / WBC: tissue Blood; for KIDNEY_L / KIDNEY_R / KIDNEY_TOTAL: tissue Kidney; for LIVER: tissue Liver; for ALP / ALT / AST / BUN / CRE / Ca / Cl / DBIL / GLC / IP / K / LDH / Na / PL / RALB / TBIL / TC / TG / TP / gamma-GTP: tissue Plasma

Structure (SMILES): C1CCC(C(CC2CCCCN2)C2CCCCC2)CC1 (centres undefined) [PERHEXILINE]
- TERMINAL_BW (72 h, time 3 day): 212.7 g
- APTT (72 h, time 3 day): 22.7 s
- Bas (72 h, time 3 day): 0%
- Eos (72 h, time 3 day): 0.8%
- Fbg (72 h, time 3 day): 312.8 mg/dL
- Hb (72 h, time 3 day): 13.9 g/dL
- Ht (72 h, time 3 day): 41.3%
- Lym (72 h, time 3 day): 80%
- MCHC (72 h, time 3 day): 33.8%
- MCV (72 h, time 3 day): 61.4 fL
- Mono (72 h, time 3 day): 1.8%
- Neu (72 h, time 3 day): 16.5%
- PT (72 h, time 3 day): 16.8 s
- Plat (72 h, time 3 day): 130.8 x10_4/uL
- RBC (72 h, time 3 day): 673.2 x10_4/ul
- Ret (72 h, time 3 day): 4.4%
- WBC (72 h, time 3 day): 100 x10_2/uL
- KIDNEY_L (72 h, time 3 day): 1 g
- KIDNEY_R (72 h, time 3 day): 0.9 g
- KIDNEY_TOTAL (72 h, time 3 day): 1.9 g
- LIVER (72 h, time 3 day): 9.8 g
- ALP (72 h, time 3 day): 1606.6 IU/L
- ALT (72 h, time 3 day): 43.6 IU/L
- AST (72 h, time 3 day): 69 IU/L
- BUN (72 h, time 3 day): 15.4 mg/dL
- CRE (72 h, time 3 day): 0.2 mg/dL
- Ca (72 h, time 3 day): 11 mg/dL
- Cl (72 h, time 3 day): 106.6 meq/L
- DBIL (72 h, time 3 day): 0.002 mg/dL
- GLC (72 h, time 3 day): 187.2 mg/dL
- IP (72 h, time 3 day): 7.4 mg/dL
- K (72 h, time 3 day): 4 meq/L
- LDH (72 h, time 3 day): 267.2 IU/L
- Na (72 h, time 3 day): 142.4 meq/L
- PL (72 h, time 3 day): 150 mg/dL
- RALB (72 h, time 3 day): 3 g/dL
- TBIL (72 h, time 3 day): 0.006 mg/dL
- TC (72 h, time 3 day): 75.6 mg/dL
- TG (72 h, time 3 day): 107.8 mg/dL
- TP (72 h, time 3 day): 5.4 g/dL
- gamma-GTP (72 h, time 3 day): 1 IU/L
- TERMINAL_BW ([…], time 7 day): 255.5 g
- TERMINAL_BW ([…], time 14 day): 291.9 g
- TERMINAL_BW ([…], time 28 day): 322.6 g
- APTT ([…], time 7 day): 23.3 s
- Bas ([…], time 7 day): 0%
- Eos ([…], time 7 day): 0.6%
- Fbg ([…], time 7 day): 313.8 mg/dL
- Hb ([…], time 7 day): 14.3 g/dL
- Ht ([…], time 7 day): 42.2%
- Lym ([…], time 7 day): 79%
- MCHC ([…], time 7 day): 33.9%
- MCV ([…], time 7 day): 63.4 fL
- Mono ([…], time 7 day): 1.4%
- Neu ([…], time 7 day): 17.8%
- PT ([…], time 7 day): 15.5 s
- Plat ([…], time 7 day): 120.2 x10_4/uL
- RBC ([…], time 7 day): 665.4 x10_4/ul
- Ret ([…], time 7 day): 5.2%
- WBC ([…], time 7 day): 103.4 x10_2/uL
- APTT ([…], time 14 day): 22.3 s
- Bas ([…], time 14 day): 0%
- Eos ([…], time 14 day): 0.8%
- Fbg ([…], time 14 day): 311 mg/dL
- Hb ([…], time 14 day): 14.4 g/dL
- Ht ([…], time 14 day): 41.8%
- Lym ([…], time 14 day): 72%
- MCHC ([…], time 14 day): 34.4%
- MCV ([…], time 14 day): 59.9 fL
- Mono ([…], time 14 day): 2.2%
- Neu ([…], time 14 day): 24%
- PT ([…], time 14 day): 15.8 s
- Plat ([…], time 14 day): 115.8 x10_4/uL
- RBC ([…], time 14 day): 697.8 x10_4/ul
- Ret ([…], time 14 day): 4.7%
- WBC ([…], time 14 day): 121.2 x10_2/uL
- APTT ([…], time 28 day): 23.3 s
- Bas ([…], time 28 day): 0%
- Eos ([…], time 28 day): 0.6%
- Fbg ([…], time 28 day): 313.8 mg/dL
- Hb ([…], time 28 day): 14.3 g/dL
- Ht ([…], time 28 day): 42.2%
- Lym ([…], time 28 day): 79%
- MCHC ([…], time 28 day): 33.9%
- MCV ([…], time 28 day): 63.4 fL
- Mono ([…], time 28 day): 1.4%
- Neu ([…], time 28 day): 17.8%
- PT ([…], time 28 day): 15.5 s
- Plat ([…], time 28 day): 120.2 x10_4/uL
- RBC ([…], time 28 day): 665.4 x10_4/ul
- Ret ([…], time 28 day): 5.2%
- WBC ([…], time 28 day): 103.4 x10_2/uL
- KIDNEY_L ([…], time 7 day): 1.1 g
- KIDNEY_R ([…], time 7 day): 1.2 g
- KIDNEY_TOTAL ([…], time 7 day): 2.3 g
- KIDNEY_L ([…], time 14 day): 1.2 g
- KIDNEY_R ([…], time 14 day): 1.2 g
- KIDNEY_TOTAL ([…], time 14 day): 2.4 g
- KIDNEY_L ([…], time 28 day): 1.2 g
- KIDNEY_R ([…], time 28 day): 1.2 g
- KIDNEY_TOTAL ([…], time 28 day): 2.5 g
- LIVER ([…], time 7 day): 11.9 g
- LIVER ([…], time 14 day): 13 g
- LIVER ([…], time 28 day): 12.8 g
- ALP ([…], time 7 day): 1641 IU/L
- ALT ([…], time 7 day): 35 IU/L
- AST ([…], time 7 day): 61.8 IU/L
- BUN ([…], time 7 day): 17.8 mg/dL
- CRE ([…], time 7 day): 0.2 mg/dL
- Ca ([…], time 7 day): 10.6 mg/dL
- Cl ([…], time 7 day): 106.2 meq/L
- DBIL ([…], time 7 day): 0 mg/dL
- GLC ([…], time 7 day): 197.6 mg/dL
- IP ([…], time 7 day): 8.1 mg/dL
- K ([…], time 7 day): 4.3 meq/L
- LDH ([…], time 7 day): 200.4 IU/L
- Na ([…], time 7 day): 142.8 meq/L
- PL ([…], time 7 day): 158.4 mg/dL
- RALB ([…], time 7 day): 3 g/dL
- TBIL ([…], time 7 day): 0.006 mg/dL
- TC ([…], time 7 day): 76 mg/dL
- TG ([…], time 7 day): 138.4 mg/dL
- TP ([…], time 7 day): 5.7 g/dL
- gamma-GTP ([…], time 7 day): 1.4 IU/L
- ALP ([…], time 14 day): 1470.2 IU/L
- ALT ([…], time 14 day): 38 IU/L
- AST ([…], time 14 day): 63.2 IU/L
- BUN ([…], time 14 day): 18.2 mg/dL
- CRE ([…], time 14 day): 0.2 mg/dL
- Ca ([…], time 14 day): 10.7 mg/dL
- Cl ([…], time 14 day): 105.8 meq/L
- DBIL ([…], time 14 day): 0.004 mg/dL
- GLC ([…], time 14 day): 206.6 mg/dL
- IP ([…], time 14 day): 7.2 mg/dL
- K ([…], time 14 day): 4.2 meq/L
- LDH ([…], time 14 day): 180.2 IU/L
- Na ([…], time 14 day): 143 meq/L
- PL ([…], time 14 day): 151.8 mg/dL
- RALB ([…], time 14 day): 3 g/dL
- TBIL ([…], time 14 day): 0.008 mg/dL
- TC ([…], time 14 day): 70 mg/dL
- TG ([…], time 14 day): 154.6 mg/dL
- TP ([…], time 14 day): 5.8 g/dL
- gamma-GTP ([…], time 14 day): 1.2 IU/L
- ALP ([…], time 28 day): 1254 IU/L
- ALT ([…], time 28 day): 39.8 IU/L
- AST ([…], time 28 day): 62.8 IU/L
- BUN ([…], time 28 day): 16 mg/dL
- CRE ([…], time 28 day): 0.2 mg/dL
- Ca ([…], time 28 day): 10.4 mg/dL
- Cl ([…], time 28 day): 107.2 meq/L
- DBIL ([…], time 28 day): 0 mg/dL
- GLC ([…], time 28 day): 199.2 mg/dL
- IP ([…], time 28 day): 6.4 mg/dL
- K ([…], time 28 day): 4 meq/L
- LDH ([…], time 28 day): 162.8 IU/L
- Na ([…], time 28 day): 144.2 meq/L
- PL ([…], time 28 day): 148 mg/dL
- RALB ([…], time 28 day): 3 g/dL
- TBIL ([…], time 28 day): 0.006 mg/dL
- TC ([…], time 28 day): 68 mg/dL
- TG ([…], time 28 day): 150.4 mg/dL
- TP ([…], time 28 day): 5.9 g/dL
- gamma-GTP ([…], time 28 day): 1 IU/L
